Test results as given in paper PMC3813752 (PLoS ONE, 2013).
Values joined by “and” are separate entries in the source; they are usually repeats but may differ in a detail not shown here. Identical values can stand only once. “Also recorded” adds a separate entry of the source. Like-named read-outs stand apart in the source and are kept apart here. Marks after values point to notes of the source that are not given here.

What was measured:
[1] = target: T1, human CB1 receptor (Homo sapiens, UniProt P21554); assay: cAMP accumulation assay, CHO cells expressing CB1; type: cell-based; settings: for functional property at CB1 (agonist/antagonist): in words, standard ligands partly from the literature
T1 sequence (P21554 whole entry): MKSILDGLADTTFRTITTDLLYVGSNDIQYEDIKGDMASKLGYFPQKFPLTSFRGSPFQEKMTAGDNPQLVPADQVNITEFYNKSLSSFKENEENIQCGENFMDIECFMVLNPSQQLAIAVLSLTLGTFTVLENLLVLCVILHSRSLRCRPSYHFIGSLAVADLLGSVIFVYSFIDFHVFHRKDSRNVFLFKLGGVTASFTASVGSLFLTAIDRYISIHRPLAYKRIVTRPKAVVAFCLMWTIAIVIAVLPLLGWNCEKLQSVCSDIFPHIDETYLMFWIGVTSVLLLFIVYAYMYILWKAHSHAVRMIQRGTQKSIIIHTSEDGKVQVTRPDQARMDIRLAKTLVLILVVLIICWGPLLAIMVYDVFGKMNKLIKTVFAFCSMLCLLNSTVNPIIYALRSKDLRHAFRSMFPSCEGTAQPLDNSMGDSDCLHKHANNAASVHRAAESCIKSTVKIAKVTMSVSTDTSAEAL

[2] = target: T2, human GPR18 (Homo sapiens, UniProt Q14330); settings: for functional property at GPR18 (agonist/antagonist): in words; for agonist effect on β-arrestin recruitment at GPR18: test compound 10 µM, related to effect of Δ9-THC 10 µM = 100%
T2 sequence (Q14330 1-331): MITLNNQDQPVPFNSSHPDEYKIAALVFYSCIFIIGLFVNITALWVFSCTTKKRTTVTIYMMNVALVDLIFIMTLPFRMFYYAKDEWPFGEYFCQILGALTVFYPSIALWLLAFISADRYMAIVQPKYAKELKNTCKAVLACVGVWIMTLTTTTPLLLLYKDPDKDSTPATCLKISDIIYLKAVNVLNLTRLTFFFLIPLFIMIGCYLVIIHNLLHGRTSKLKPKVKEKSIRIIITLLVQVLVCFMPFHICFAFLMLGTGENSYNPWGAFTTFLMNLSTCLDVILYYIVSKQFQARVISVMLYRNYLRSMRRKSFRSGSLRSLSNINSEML

[3] = target: T2, human GPR18; assay: cell-based; settings: for inhibition at 10 µM: CHO, read-out: % inhibition of Δ9-THC (10 µM)-induced β-arrestin recruitment at GPR18, test compound at 10 µM; for IC50: GPR18 IC50, β-arrestin recruitment, antagonist mode vs. Δ9-THC (10 µM)
[4] = target: T3, human CB2 receptor (Homo sapiens, UniProt P34972); assay: cAMP accumulation assay, CHO cells expressing CB2; type: cell-based; settings: for functional property at CB2 (agonist/antagonist): in words, standard ligands partly from the literature
T3 sequence (P34972 whole entry): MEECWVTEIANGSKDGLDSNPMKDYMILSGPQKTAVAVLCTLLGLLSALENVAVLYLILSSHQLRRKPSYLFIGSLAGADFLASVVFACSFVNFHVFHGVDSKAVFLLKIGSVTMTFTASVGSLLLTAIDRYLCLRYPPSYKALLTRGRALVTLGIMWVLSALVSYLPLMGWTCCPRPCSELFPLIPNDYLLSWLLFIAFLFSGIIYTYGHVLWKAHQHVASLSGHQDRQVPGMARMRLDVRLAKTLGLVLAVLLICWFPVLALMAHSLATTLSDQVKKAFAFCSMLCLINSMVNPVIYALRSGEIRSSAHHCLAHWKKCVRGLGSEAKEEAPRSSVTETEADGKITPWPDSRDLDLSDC

[5] = target: human GPR55 (Homo sapiens, UniProt Q9Y2T6); assay: β-arrestin recruitment assay (PathHunter), CHO cells expressing GPR55; settings: for inhibition at 10 µM: CHO; for IC50: GPR55 IC50, β-arrestin recruitment, antagonist mode vs. LPI (1 µM); for functional property at GPR55 (agonist/antagonist): in words; for agonist effect on β-arrestin recruitment at GPR55: test compound 10 µM, related to effect of LPI 1 µM = 100%
Sequence of human GPR55 (Q9Y2T6 whole entry): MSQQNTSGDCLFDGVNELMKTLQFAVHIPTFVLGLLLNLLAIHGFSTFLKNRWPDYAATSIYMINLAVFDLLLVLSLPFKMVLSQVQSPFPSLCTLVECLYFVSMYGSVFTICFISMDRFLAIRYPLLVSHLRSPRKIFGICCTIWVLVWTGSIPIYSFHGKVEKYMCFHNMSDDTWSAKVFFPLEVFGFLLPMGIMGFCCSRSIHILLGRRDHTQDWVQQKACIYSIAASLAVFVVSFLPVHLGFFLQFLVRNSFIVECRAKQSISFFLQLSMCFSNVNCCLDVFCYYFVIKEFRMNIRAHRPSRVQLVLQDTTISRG

[6] = target: T3, human CB2 receptor; assay: Radioligand binding (heterologous competition) vs. [3H]CP55,940 at CB2; settings: three independent experiments in duplicates
[7] = target: T1, human CB1 receptor; assay: biochemical; type: binding; settings: for Ki: membranes of CHO cells expressing human CB1, three independent experiments in duplicates, read-out: Ki CB1, heterologous competition vs. [3H]CP55,940
[8] = read-out: % inhibition of LPI (1 µM)-induced β-arrestin recruitment at GPR55, test compound at 10 µM
[9] = read-out: % inhibition of LPI (1 µM)-induced β-arrestin recruitment at GPR55
[10] = inhibition of forskolin-stimulated cAMP, CHO-hCB1, read-out: EC50 CB1, cAMP accumulation assay
[11] = Ki CB2, heterologous competition vs. [3H]CP55,940, membranes of CHO cells expressing human CB2
[12] = membranes of CHO cells expressing human CB2, read-out: Ki CB2, heterologous competition vs. [3H]CP55,940
[13] = at 10 µM, compared to max. effect of full agonist CP55,940 (1 µM) = 100%

| Compound | functional property at CB1 (agonist/antagonist) [1] | functional property at GPR18 (agonist/antagonist) [2] | agonist effect on β-arrestin recruitment at GPR18 [2] [%] | EC50 [3] [µM] | inhibition at 10 µM [3] [%] | IC50 [3] | functional property at CB2 (agonist/antagonist) [4] | EC50 [5] [µM] | inhibition at 10 µM [5, 8] [%] | IC50 [5] | functional property at GPR55 (agonist/antagonist) [5] | agonist effect on β-arrestin recruitment at GPR55 [5] [%] | inhibition at 10 µM [5, 9] [%] | Ki [6, 11] [µM] | EC50 [4] [µM] | Ki [7] [µM] | EC50 [1] [µM] | other results |
| --- | --- | --- | --- | --- | --- | --- | --- | --- | --- | --- | --- | --- | --- | --- | --- | --- | --- | --- |
| COc1ccc(-c2oc3cc(OC)ccc3c2C(=O)c2ccc(C#N)cc2)cc1 [Compound 6, reference compound] | antagonist | antagonist | 0 | > 10 | 81 | 4.97 ± 1.51 µM | antagonist | > 10 | 81 | 4.14 ± 1.05 µM | antagonist | 0 |  |  |  |  |  |  |
| COc1ccc(C(=O)c2c(C)n(CCN3CCOCC3)c3cc(I)ccc23)cc1 [Compound 7, reference compound] | agonist | antagonist | 0 | > 10 | 52 | ~10 µM | antagonist | > 10 |  | ≥ 10 µM | antagonist | 22 | 48 |  |  |  |  |  |
| CCCc1ccc(O)c(-c2cc(CCC)ccc2O)c1 [Compound 12, tetrahydromagnolol] | agonist | antagonist | 0 | > 10 | 64 | 30.9 ± 15.8 µM | agonist | > 10 |  | 13.2 ± 4 µM | antagonist | 24 | 96 |  |  |  |  |  |
| CCCc1ccc(O)c(-c2cc(CCC)ccc2OC)c1 [Compound 12a, methoxytetrahydromagnolol] | Full agonists; also recorded: agonist | antagonist | 26 | > 10 | 41 | ~10 µM | Full agonists; also recorded: agonist | > 10 |  | 4.55 ± 1.08 µM | antagonist | 0 | 82 | 0.221 ± 0.057 | 0.0778 ± 0.0205 | 0.267 ± 0.058 |  | EC50 [1, 10]: 0.622 ± 0.284 µM |
| CCCCc1ccc(O)c(-c2cc(CCCC)ccc2O)c1 [Compound 43] |  |  | 0 | > 10 | 74 | 12 ± 1.4 µM |  | > 10 | 0 | > 10 µM |  | 29 |  |  | 0.378 ± 0.148 | 2.7 ± 1.2 | 7.11 ± 1.43 | Ki [6, 12]: 1.59 ± 0.04 µM |
| CCCCCc1ccc(O)c(-c2cc(CCCCC)ccc2O)c1 [Compound 44] |  |  | 0 | > 10 | 128 | 12 ± 2.7 µM |  | > 10 | 2 | > 10 µM |  | 26 |  |  | 2.3 ± 0.71 | 3.13 ± 1.13 | 4.54 ± 0.83 | Ki [6, 12]: 0.833 ± 0.123 µM |
| CCCCCc1ccc(O)c(-c2cc(CCC)ccc2O)c1 [Compound 60, 5-Pentyl-5′-propylbiphenyl-2,2′-diol] | full agonistic effects; also recorded: full agonists; also recorded: agonist | antagonist | 0 | > 10 | 118 | 14.5 ± 2.8 µM | partial agonists; also recorded: almost full efficacy; also recorded: agonist | > 10 | 45 | > 10 µM and ~10 µM | antagonist | 28 |  | 0.0371 ± 0.0078 | 0.258 ± 0.013 | 0.362 ± 0.113 | 0.971 ± 0.089 |  |
| CCCCCc1ccc(O)c(-c2cc(CCC)ccc2OC)c1 [Compound 60a, 2-(2-methoxy-5-propyl-phenyl)-4-pentylphenol] | Full agonists; also recorded: agonist | antagonist | 22 | > 10 | 47 | > 10 µM and ~10 µM | Full agonists; also recorded: agonist | > 10 |  | 6.93 ± 1.06 µM | antagonist | 0 | 66 | 0.031 ± 0.0099 | 0.0399 ± 0.01 | 0.0173 ± 0.0014 |  | EC50 [1, 10]: 0.0375 ± 0.0056 µM; increase in CB1 receptor affinity compared to the unmethylated parent biphenyl ([7]; 60a vs 60, 61a vs 61): 21 fold |
| CCCCCCc1ccc(O)c(-c2cc(CCC)ccc2O)c1 [Compound 61, 5-Hexyl-5′-propylbiphenyl-2,2′-diol] | full agonistic effects; also recorded: full agonists; also recorded: agonist | antagonist | 0 | > 10 | 139 | ~10.4 µM and 10.4 µM | almost full efficacy; also recorded: partial agonists; also recorded: agonist | > 10 | 45 | > 10 µM and ~10 µM | antagonist | 32 |  | 0.0294 ± 0.009 | 0.159 ± 0.018 | 0.145 ± 0.048 | 0.829 ± 0.278 | selectivity for CB1 versus GPR18 ([2]; Ki CB1 vs estimated GPR18 IC50): approximately 70 fold; selectivity for CB2 versus GPR18 ([2]; Ki CB2 vs estimated GPR18 IC50): ~350 fold |
| CCCCCCCc1ccc(O)c(-c2cc(CCC)ccc2O)c1 [Compound 62] |  |  | 0 | > 10 | 123 | 10.6 ± 0.4 µM |  | > 10 | 17 | > 10 µM |  | 5 |  |  |  |  |  | efficacy CB1, cAMP accumulation assay [1, 13]: (110%)^b; efficacy CB2, cAMP accumulation assay [4, 13]: (57%)^b |
